Laboratory results as given in patent US20110212943A1, “NOVEL BRIDGED CYCLIC COMPOUNDS AS HISTONE DEACETYLASE INHIBITORS” (ORCHID RESEARCH LABORATORIES LIMITED, priority 2008, published 2011).

Experiments:
[1] = target: HDAC (Mouse Liver Extract); assay: Histone Deacetylase (HDAC) Inhibition Assay using Boc-Lys (Ac)-AMC Substrate; assay type: biochemical; settings: Mouse liver enzyme, 30 minutes at 37° C.
Procedure: Histone Deacetylase (HDAC) Inhibition Assay using Boc-Lys (Ac)-AMC Substrate: Inhibition of HDAC has been implicated to modulate transcription and to induce apoptosis or differentiation in cancer cells. The fluorometric assay provides a fast and fluorescence based method that eliminates radioactivity, extractions or chromatography, as used in traditional assays. The assay is based on two steps. First, the HDAC fluorometric substrate, which comprises an acetylated lysine side chain, is incubated with a sample containing HDAC activity (Mouse Liver Extract). Deacetylation of the substrate sensitizes the substrate, in the second step; treatment with the Trypsin stop solution produces a fluorophore that can be easily analyzed using fluorescence plate reader.
Assay was done in 96-well black microplate and total volume of the assay was 100 μL. Mouse liver enzyme (10 mg/mL) was diluted 1:6 with HDAC buffer. Enzyme cocktail was made of 10 μL of diluted enzyme and 30 μL of HDAC buffer. 40 μL of enzyme cocktail followed by 10 μL of test compound (1 μM and 10 μM) or buffer (control) was added to each well. The plate was pre-incubated at 37° C. for 5 minutes. The HDAC reaction was started by adding 50 μL of HDAC substrate Boc-Lys (Ac)-AMC (Bachem AG, Switzerland). The plate was incubated at 37° C. for 30 minutes. The reaction was stopped by adding 100 μL of Trypsin stop solution and incubating at 37° C. for 15-30 minutes. Measuring the fluorescence at excitation wavelength of 360 nm and emission wavelength of 460 nm monitored the release of AMC. Buffer alone and substrate alone served as blank.

[2] = system: HCT 116 (colon), NCIH460 (lung) and U251 (glioma) cell lines; assay: Anti-cancer screen (MTT growth inhibition); assay type: cell-based; settings: mean over HCT 116, NCIH460 and U251 cell lines, 48 hours of incubation
Procedure: Experimental drugs were screened for anti-cancer activity in three cell lines using five concentrations for each compound. The cell lines—HCT 116 (colon), NCIH460 (lung) and U251 (glioma) were maintained in DMEM containing 10% fetal bovine serum. 96-well microtiter plates are inoculated with cells in 100 μL of cell suspension (5×10^4 cells/mL) for 24 hours at 37° C., 5% CO2, 95% air and 100% relative humidity. A separate plate with these cell lines is also inoculated to determine cell viability before the addition of the compounds (T0)
Following 24-hour incubation, test compounds were added to the 96 well plates. Each plate contains one of the above cell lines and the following samples in triplicate: five different dilutions (0.01, 0.1, 1, 10 and 100 μM) of four test compounds, appropriate dilutions of a cytotoxic standard and growth medium (untreated) wells. Test compounds were dissolved in DMSO to prepare 20 mM stock solutions on the day of drug addition and serial dilutions were carried out in complete growth medium at 2× strength such that 100 μL added to wells gave final concentrations (0.01, 0.1, 1, 10 and 100 μM) in the well. SAHA was used as standard drug in these experiments.
For T0 measurement, 24 hours after seeding the cells, 20 μL of 3-(4,5-dimethyl-2-thiazolyl)-2,5-diphenyl-2H-tetrazolium (MIT) solution per well was added to the ‘T0’ plate and incubated for 3 hours at 37° C. in a CO2 incubator. The plate containing cells and test compounds was treated similarly after 48 hours of incubation. After 3 hours of MTT addition, well contents were aspirated carefully followed by addition of 150 μL DMSO per well. Plates were agitated to ensure dissolution of the formazan crystals in DMSO and absorbance was read at 570 nm (A570).
Percent growth (PG) is calculated relative to the control and zero measurement wells (T0) as follows:
(Mosmann T. Rapid colorimetric assay for cellular growth and survival: application to proliferation and cytotoxicity assays. (J. Immunol. Methods. 1983, 65 (1-2), 55-63; Anne Monks et al). Feasibility of high-flux anticancer drug screen using a diverse panel of cultured human tumor cell lines”. (JNCI, Vol. 83, No. 11, 1991, 757-766).

SMILES	IC50 [1] [nM]	GI50 [2] [nM]
O=C(/C=C/c1ccc(CNC(=O)CC2C3CC4CC2CC(O)(C4)C3)cc1)NO (stereo not shown) [Example 24, (2E)-N-hydroxy-3-[4-({[(5-hydroxyadamant-2-yl)acetyl]amino}methyl)phenyl]acrylamide]	110	4200
O=C(/C=C/c1ccc(CNC23CC4CC(CC(O)(C4)C2)C3)cc1)NO [Example 2, (2E)-N-hydroxy-3-(4-{[(3-hydroxyadamant-1-yl)amino]methyl}phenyl)acrylamide]	250	5100
O=C(/C=C/c1ccc(CNCC23CC4CC(CC(O)(C4)C2)C3)cc1)NO [Example 11, (2E)-N-hydroxy-3-[4-({[(3-hydroxyadamant-1-yl)methyl]amino}methyl)phenyl]acrylamide]	9.06	100
COC12CC3CC(CC(NCc4ccc(/C=C/C(=O)NO)cc4)(C3)C1)C2 [Example 3, (2E)-N-hydroxy-3-(4-{[(3-methoxyadamant-1-yl)amino]methyl}phenyl)acrylamide]	260	5200
O=C(/C=C/c1ccc(CNC23CC4CC(CC(CO)(C4)C2)C3)cc1)NO [Example 9, (2E)-3-(4-{[(3-hydroxymethyladamant-1-yl)amino]methyl}phenyl)-N-hydroxy acrylamide]	240	6100
Nc1ccccc1NC(=O)/C=C/c1ccc(CNC23CC4CC(CC(O)(C4)C2)C3)cc1 [Example 13, (2E)-N-(2-aminophenyl)-3-{4-[(3-hydroxyadamant-1-ylamino)methyl]phenyl}acrylamide]	5400	52000
O=C(/C=C/c1ccc(CNC23CC4CC(C2)CC(c2ccccc2)(C4)C3)cc1)NO [Example 8, (2E)-3-(4-{[(3-phenyladamant-1-yl)amino]methyl}phenyl)-N-hydroxyacrylamide]	440	3500
O=C(/C=C/c1ccc(CNC2C3CC4CC2CC(O)(C4)C3)cc1)NO (stereo not shown) [Example 16, (2E)-N-hydroxy-3-(4-{[(5-hydroxyadamant-2-yl)amino]methyl}phenyl)acrylamide]	160	400
Nc1ccccc1NC(=O)/C=C/c1ccc(CNC23CC4CC(CC(C4)C2)C3)cc1 [Example 12, (2E)-N-(2-aminophenyl)-3-{4-[(adamant-1-ylamino)methyl]phenyl}acrylamide]	4300	7000
O=C(/C=C/c1ccc(CNC(=O)C23CC4CC(CC(C4)C2)C3)cc1)NO [Example 25, N-{4-[(1E)-3-(hydroxyamino)-3-oxoprop-1-en-1-yl]benzyl}adamantane-1-carboxamide]	67	100
O=C(CCCCCCC(=O)Nc1ccccc1)NO [SAHA, suberoylanilide hydroxamic acid, reference compound]		1260
O=C(/C=C/c1ccc(CNCC23CC4CC(CC2C4)C3)cc1)NO [Example 32, (2E)-N-hydroxy-3-(4-{[(tricyclo[3.3.1.0^3,7]non-3-ylmethyl)amino]methyl}phenyl)acrylamide]	0.385	10
O=C(/C=C/c1ccc(CN2CC3CC4CC(C3)CC2C4)cc1)NO [Example 6, (2E)-3-[4-(4-azatricyclo[4.3.1.1^3,8]undec-4-ylmethyl)phenyl]-N-hydroxyacrylamide]	110	2800
O=C(/C=C/c1ccc(CNC(=O)CC23CC4CC(CC(C4)C2)C3)cc1)NO [Example 23, (2E)-3-(4-{[(adamant-1-ylacetyl)amino]methyl}phenyl)-N-hydroxyacrylamide]	1.8	180
CCOC12CC3CC(CC(NCc4ccc(/C=C/C(=O)NO)cc4)(C3)C1)C2 [Example 4, (2E)-N-hydroxy-3-(4-{[(3-ethoxyadamant-1-yl)amino]methyl}phenyl)acrylamide]	460	3300
O=C(C=Cc1ccc(CNCCNC(=O)C23CC4CC(CC(C4)C2)C3)cc1)NO [Example 29, N-[2-({4-[(1E)-3-(hydroxyamino)-3-oxoprop-1-en-1-yl]benzyl}amino)ethyl]adamantine-1-carboxamide]	10.4	200
CC12CC3CC(C)(C1)CC(NCc1ccc(/C=C/C(=O)NO)cc1)(C3)C2 [Example 5, (2E)-3-(4-{[(3,5-dimethyladamant-1-yl)amino]methyl}phenyl)-N-hydroxyacrylamide]	30	1100
O=C(/C=C/c1ccc(CNC(=O)CC2C3CC4CC(C3)CC2C4)cc1)NO (stereo not shown) [Example 20, (2E)-N-hydroxy-3-(4-{[(adamantyl-2-ylacetyl)amino]methyl}phenyl)acrylamide]	8	1200
O=C(/C=C/c1ccc(CNC2C3CC4CC(C3)CC2C4)cc1)NO (stereo not shown) [Example 15, (2E)-3-{4-[(adamant-2-ylamino)methyl]phenyl}-N-hydroxyacrylamide]	60	150
O=C(C=C1C2CC3CC(C2)CC1C3)NCc1ccc(/C=C/C(=O)NO)cc1 [Example 21, (2E)-N-hydroxy-3-(4-{[(tricyclo[3.3.1.1^3,7]dec-2-ylideneacetyl)amino]methyl}phenyl)acrylamide]	43	2100
O=C(C=Cc1ccc(CNCCC2C3CC4CC(C3)CC2C4)cc1)NO (stereo not shown) [Example 17, (2E)-N-hydroxy-3-[4-({[adamant-2-yl)ethyl]amino}methyl)phenyl]acrylamide]	0.28	290
O=C(/C=C/c1ccc(CNC23CC4CC(CC(Cl)(C4)C2)C3)cc1)NO [Example 7, (2E)-3-(4-{[(3-chloroadamant-1-yl)amino]methyl}phenyl)-N-hydroxyacrylamide]	40	9700
O=C(/C=C/c1ccc(CNCCC2C3CC4CC2CC(O)(C4)C3)cc1)NO (stereo not shown) [Example 19, (2E)-N-hydroxy-3-[4-({[(5-hydroxyadamant-2-yl)ethyl]amino}methyl)phenyl]acrylamide]	28	220
O=C(/C=C/c1ccc(CNCC(=O)NC23CC4CC(CC(C4)C2)C3)cc1)NO [Example 28, (2E)-3-[4-({[2-(adamant-1-ylamino)-2-oxoethyl]amino}methyl)phenyl]-N-hydroxyacrylamide]	80	4400
O=C(/C=C/c1ccc(CNC23CC4CC(CC(C4)C2)C3)cc1)NO [Example 1, (2E)-3-{4-[(adamant-1-ylamino)methyl]phenyl}-N-hydroxyacrylamide]	70	1800
